Consider 22 molecules from patent US11702404B2, “GLP-1R modulating compounds” (priority 2019, dated 2023).

The structures appear in SMILES notation. Where two headings read alike, the source gives them in different places.

As usually defined, the EC50 is the concentration that produces a half-maximal response.

A short description of data set [1]: Microsomal stability, human liver microsomes (predicted hepatic clearance). The following applies: predicted from in vitro microsomal stability data.
A further data set has as its target GLP-1R (Homo sapiens, UniProt P43220). Kind of data set: GLP-1R activation: cAMP increase in CHO cells stably expressing GLP-1R. Type of data set: cell-based.
The mark [2] stands for this setting: cAMP increase, CHO cells stably expressing GLP-1R, 10 point dose response, 30 minutes incubation, read-out: EC50.

Sequence of GLP-1R (P43220 24-463): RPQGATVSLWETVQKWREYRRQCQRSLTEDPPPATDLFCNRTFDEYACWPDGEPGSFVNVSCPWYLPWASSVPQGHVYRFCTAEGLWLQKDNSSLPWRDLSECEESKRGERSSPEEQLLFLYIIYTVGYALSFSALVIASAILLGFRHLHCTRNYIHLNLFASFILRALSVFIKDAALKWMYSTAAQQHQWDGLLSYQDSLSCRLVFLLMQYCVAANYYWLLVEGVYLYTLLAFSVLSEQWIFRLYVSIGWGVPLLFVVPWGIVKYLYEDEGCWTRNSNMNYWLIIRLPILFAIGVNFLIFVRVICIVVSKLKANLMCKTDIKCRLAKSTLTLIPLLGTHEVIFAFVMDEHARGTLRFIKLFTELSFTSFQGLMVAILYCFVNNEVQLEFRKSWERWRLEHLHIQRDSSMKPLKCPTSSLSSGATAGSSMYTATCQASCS

Turning to `COCC1(Cn2c(Cc3ccc(-c4cccc(OCc5ccc(C#N)cc5F)n4)cc3F)nc3ccc(C(=O)O)cc32)CC1` [Example 380, 2-(4-(6-((4-cyano-2-fluorobenzyl)oxy)pyridin-2-yl)-2-fluorobenzyl)-1-((1-(methoxymethyl)cyclopropyl)methyl)-1H-benzo[d]imidazole-6-carboxylic acid], the “Predicted Hepatic Clearance (Pred. Cl.)” value in data set [1] is less than 1.83 mL/min/kg. Moreover, the EC50 at GLP-1R (setting [2]) was determined as 7.72 nM.
For the molecule `N#Cc1ccc(COc2cccc(-c3ccc(Cc4nc5ccc(C(=O)O)cc5n4C4(CF)CC4)c(F)c3)n2)c(F)c1` [Example 381, 2-(4-(6-((4-cyano-2-fluorobenzyl)oxy)pyridin-2-yl)-2-fluorobenzyl)-1-(1-(fluoromethyl)cyclopropyl)-1H-benzo[d]imidazole-6-carboxylic acid], in data set [1], the “Predicted Hepatic Clearance (Pred. Cl.)” value is less than 1.83 mL/min/kg. For the same molecule, on GLP-1R (setting [2]), the EC50 was 7.43 nM.
Regarding `N#Cc1ccc(COc2cccc(-c3ccc(Cc4nc5ccc(C(=O)O)cc5n4CC4CCC4)c(F)c3)n2)c(F)c1` [Example 382, 2-(4-(6-((4-cyano-2-fluorobenzyl)oxy)pyridin-2-yl)-2-fluorobenzyl)-1-(cyclobutylmethyl)-1H-benzo[d]imidazole-6-carboxylic acid], the “Predicted Hepatic Clearance (Pred. Cl.)” value in data set [1] was less than 1.83 mL/min/kg. On GLP-1R (setting [2]), the EC50 was determined as 8.7 nM.
For the molecule `COCCn1c(Cc2ccc(-c3cccc(OCc4ccc(C#N)cc4F)n3)cc2NC(=O)OC)nc2ccc(C(=O)O)cc21` [Example 383, 2-(4-(6-((4-cyano-2-fluorobenzyl)oxy)pyridin-2-yl)-2-((methoxycarbonyl)amino)benzyl)-1-(2-methoxyethyl)-1H-benzo[d]imidazole-6-carboxylic acid], the “Predicted Hepatic Clearance (Pred. Cl.)” value in data set [1] was 8.67 mL/min/kg. This molecule also showed an EC50 on GLP-1R (EC50 (nM)) of 123 nM.
Take `CC1(Cn2c(Cc3ccc(-c4cccc(OCc5ccc(C#N)cc5F)n4)cc3F)nc3ccc(C(=O)O)cc32)CCC1` [Example 384, 2-(4-(6-((4-cyano-2-fluorobenzyl)oxy)pyridin-2-yl)-2-fluorobenzyl)-1-((1-methylcyclobutyl)methyl)-1H-benzo[d]imidazole-6-carboxylic acid]: the “Predicted Hepatic Clearance (Pred. Cl.)” value in data set [1] is less than 1.83 mL/min/kg. In addition, the concentration giving a half-maximal response (EC50) at GLP-1R (setting [2]) is 1.45 nM.
Take `N#Cc1ccc(COc2cccc(-c3ccc(Cc4nc5ccc(C(=O)O)cc5n4CC4(C(F)F)CCC4)c(F)c3)n2)c(F)c1` [Example 385, 2-(4-(6-((4-cyano-2-fluorobenzyl)oxy)pyridin-2-yl)-2-fluorobenzyl)-1-((1-(difluoromethyl)cyclobutyl)methyl)-1H-benzo[d]imidazole-6-carboxylic acid]: the “Predicted Hepatic Clearance (Pred. Cl.)” value in data set [1] was 5.33 mL/min/kg. On GLP-1R (setting [2]), the EC50 was found to be 1.34 nM.
For `COCCn1c(Cc2ccc(-c3cccc(OCc4ccc(C#N)cc4F)n3)cc2F)nc2ccc(CC(=O)O)cc21` [Example 386, 2-(2-(4-(6-((4-cyano-2-fluorobenzyl)oxy)pyridin-2-yl)-2-fluorobenzyl)-1-(2-methoxyethyl)-1H-benzo[d]imidazol-6-yl)acetic acid], in data set [1], the “Predicted Hepatic Clearance (Pred. Cl.)” value is 2 mL/min/kg. On GLP-1R (EC50 (nM)), this molecule returned an EC50 of 157 nM.
For `COCCn1c(Cc2ccc(-c3cccc(OCc4ccc(C#N)cc4F)n3)cc2S(C)(=O)=O)nc2ccc(C(=O)O)cc21` [Example 387, 2-(4-(6-((4-cyano-2-fluorobenzyl)oxy)pyridin-2-yl)-2-(methylsulfonyl)benzyl)-1-(2-methoxyethyl)-1H-benzo[d]imidazole-6-carboxylic acid], the “Predicted Hepatic Clearance (Pred. Cl.)” value in data set [1] is 8.3 mL/min/kg. On GLP-1R (setting [2]), the EC50 turned out to be 504 nM.
On to `N#CCC1(Cn2c(Cc3ccc(-c4cccc(OCc5ccc(C#N)cc5F)n4)cc3C#N)nc3ccc(C(=O)O)cc32)CC1` [Example 388, 2-(2-cyano-4-(6-((4-cyano-2-fluorobenzyl)oxy)pyridin-2-yl)benzyl)-1-((1-(cyanomethyl)cyclopropyl)methyl)-1H-benzo[d]imidazole-6-carboxylic acid], for which, in data set [1], the “Predicted Hepatic Clearance (Pred. Cl.)” value was 5.17 mL/min/kg. For the same molecule, at GLP-1R (setting [2]), the EC50 was determined as 0.24 nM.
In the case of `N#Cc1ccc(COc2cccc(-c3ccc(Cc4nc5ccc(C(=O)O)cc5n4CC4CC4)c(F)c3)n2)c(F)c1` [Example 389, 2-(4-(6-((4-cyano-2-fluorobenzyl)oxy)pyridin-2-yl)-2-fluorobenzyl)-1-(cyclopropylmethyl)-1H-benzo[d]imidazole-6-carboxylic acid], the “Predicted Hepatic Clearance (Pred. Cl.)” value in data set [1] is less than 1.83 mL/min/kg. Also, at GLP-1R (setting [2]), the EC50 was found to be 26.6 nM.
`COCCCn1c(Cc2ccc(-c3cccc(OCc4ccc(C#N)cc4F)n3)cc2F)nc2ccc(C(=O)O)cc21` [Example 390, 2-(4-(6-((4-cyano-2-fluorobenzyl)oxy)pyridin-2-yl)-2-fluorobenzyl)-1-(3-methoxypropyl)-1H-benzo[d]imidazole-6-carboxylic acid]: the “Predicted Hepatic Clearance (Pred. Cl.)” value in data set [1] is 7.5 mL/min/kg. Also, the EC50 on GLP-1R (setting [2]) was 26.4 nM.
As for `COCCn1c(Cc2ccc(-c3cccc(OCc4ccc(C#N)cc4F)n3)c(F)c2C#N)nc2ccc(C(=O)O)cc21` [Example 391, 2-(2-cyano-4-(6-((4-cyano-2-fluorobenzyl)oxy)pyridin-2-yl)-3-fluorobenzyl)-1-(2-methoxyethyl)-1H-benzo[d]imidazole-6-carboxylic acid], the “Predicted Hepatic Clearance (Pred. Cl.)” value in data set [1] is 5.42 mL/min/kg. Moreover, the EC50 at GLP-1R (setting [2]) was no less than 1000 nM.
With `N#Cc1ccc(COc2cccc(-c3ccc(Cc4nc5ccc(C(=O)O)cc5n4CCCO)c(F)c3)n2)c(F)c1` [Example 392, 2-(4-(6-((4-cyano-2-fluorobenzyl)oxy)pyridin-2-yl)-2-fluorobenzyl)-1-(3-hydroxypropyl)-1H-benzo[d]imidazole-6-carboxylic acid], the “Predicted Hepatic Clearance (Pred. Cl.)” value in data set [1] is 3.17 mL/min/kg. Besides, the EC50 at GLP-1R (setting [2]) is 14.5 nM.
Taken in the same sequence, the figures for `N#Cc1ccc(COc2cccc(-c3ccc(Cc4nc5ccc(C(=O)O)cc5n4CC4(CF)CCC4)c(F)c3)n2)c(F)c1` [Example 393, 2-(4-(6-((4-cyano-2-fluorobenzyl)oxy)pyridin-2-yl)-2-fluorobenzyl)-1-((1-(fluoromethyl)cyclobutyl)methyl)-1H-benzo[d]imidazole-6-carboxylic] were 5 mL/min/kg and 33.5 nM.
As for `N#Cc1ccc(COc2cccc(-c3ccc(Cc4nc5ccc(C(=O)O)cc5n4CCC4(CF)CC4)c(F)c3)n2)c(F)c1` [Example 394, 2-(4-(6-((4-cyano-2-fluorobenzyl)oxy)pyridin-2-yl)-2-fluorobenzyl)-1-(2-(1-(fluoromethyl)cyclopropyl)ethyl)-1H-benzo[d]imidazole-6-carboxylic acid], the “Predicted Hepatic Clearance (Pred. Cl.)” value in data set [1] was 4.17 mL/min/kg. Also, the EC50 at GLP-1R (setting [2]) was 6.06 nM.
For `N#Cc1ccc(COc2cccc(-c3ccc(Cc4nc5ccc(C(=O)O)cc5n4C[C@@H]4CCN4C4COC4)c(F)c3)n2)c(F)c1` [Example 395, (S)-2-(4-(6-((4-cyano-2-fluorobenzyl)oxy)pyridin-2-yl)-2-fluorobenzyl)-1-((1-(oxetan-3-yl)azetidin-2-yl)methyl)-1H-benzo[d]imidazole-6-carboxylic acid], the “Predicted Hepatic Clearance (Pred. Cl.)” value in data set [1] was less than 1.83 mL/min/kg. Also, the EC50 at GLP-1R (read-out: EC50) is 42.3 nM.
In the case of `N#Cc1ccc(COc2cccc(-c3ccc(Cc4nc5ccc(C(=O)O)cc5n4C[C@@H]4CCN4C4COC4)c(F)c3)n2)c(F)c1` [Example 396, (S)-2-(4-(6-((4-cyano-2-fluorobenzyl)oxy)pyridin-2-yl)-2-fluorobenzyl)-1-((1-(oxetan-3-yl)azetidin-2-yl)methyl)-1H-benzo[d]imidazole-6-carboxylic acid], the “Predicted Hepatic Clearance (Pred. Cl.)” value in data set [1] is 8.67 mL/min/kg. Moreover, at GLP-1R (read-out: EC50), the EC50 came out at 45.5 nM.
Consider `COc1cc(C#N)ccc1COc1nccc(-c2cc(F)c(Cc3nc4c(F)cc(C(=O)O)cc4n3C[C@@H]3CCO3)cc2F)n1` [Example 398, (S)-2-(4-(2-((4-cyano-2-methoxybenzyl)oxy)pyrimidin-4-yl)-2,5-difluorobenzyl)-4-fluoro-1-(oxetan-2-ylmethyl)-1H-benzo[d]imidazole-6-carboxylic acid], for which the “Predicted Hepatic Clearance (Pred. Cl.)” value in data set [1] is 10.2 mL/min/kg. At GLP-1R (setting [2]), the EC50 came to 0.1 nM.
In the case of `N#CCC1(Cn2c(Cc3c(F)cc(-c4ccnc(OCc5ccc(C#N)cc5F)n4)cc3F)nc3ccc(C(=O)O)cc32)CC1` [Example 399, 2-(4-(2-((4-cyano-2-fluorobenzyl)oxy)pyrimidin-4-yl)-2,6-difluorobenzyl)-1-((1-(cyanomethyl)cyclopropyl)methyl)-1H-benzo[d]imidazole-6-carboxylic acid], the “Predicted Hepatic Clearance (Pred. Cl.)” value in data set [1] is 3.3 mL/min/kg. The EC50 on GLP-1R (setting [2]) turned out to be 2.81 nM.
For the molecule `N#CCC1(Cn2c(Cc3cc(F)c(-c4ccnc(OCc5ccc(C#N)cc5F)n4)cc3F)nc3ccc(C(=O)O)nc32)CC1` [Example 400, 2-(4-(2-((4-cyano-2-fluorobenzyl)oxy)pyrimidin-4-yl)-2,5-difluorobenzyl)-3-((1-(cyanomethyl)cyclopropyl)methyl)-3H-imidazo[4,5-b]pyridine-5-carboxylic acid], the “Predicted Hepatic Clearance (Pred. Cl.)” value in data set [1] was less than 1.83 mL/min/kg. Moreover, the EC50 at GLP-1R (setting [2]) turned out to be 0.47 nM.
In the case of `COCCn1c(Cc2c(F)cc(-c3cccc(OCc4ccc(C#N)cc4F)n3)c(F)c2F)nc2ccc(C(=O)O)cc21` [Example 401, 2-(4-(6-((4-cyano-2-fluorobenzyl)oxy)pyridin-2-yl)-2,3,6-trifluorobenzyl)-1-(2-methoxyethyl)-1H-benzo[d]imidazole-6-carboxylic acid], the “Predicted Hepatic Clearance (Pred. Cl.)” value in data set [1] is 6.92 mL/min/kg. Also, a half-maximal response on GLP-1R (EC50 (nM)) (EC50) required 1.34 nM.
As to `N#Cc1ccc(COc2cccc(-c3ccc(Cc4nc5ccc(C(=O)O)cc5n4Cc4cnco4)c(F)c3)n2)c(F)c1` [Example 402, 2-(4-(6-((4-cyano-2-fluorobenzyl)oxy)pyridin-2-yl)-2-fluorobenzyl)-1-(oxazol-5-ylmethyl)-1H-benzo[d]imidazole-6-carboxylic acid], the “Predicted Hepatic Clearance (Pred. Cl.)” value in data set [1] is 12 mL/min/kg. Moreover, at GLP-1R (setting [2]), the EC50 is 2.11 nM.
